According to ChEMBL document CHEMBL1201862, “PubChem BioAssay data set” (2004):
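Five compound concentrations were applied to cells in 96-well plates for 48 hours; endpoints were derived by simple linear interpolation of the resulting dose-response curve. At the GI50, growth is halved.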 Calls of active or inactive are those of the source. Rule as the data show it: active = GI50 up to about 1.1 µM and inactive = higher.

What was measured:
Test in all cases: NCI tumour cell line growth inhibition, 48 h
HCT-116 = tested on: HCT-116
HOP-62 = tested on: HOP-62
IGROV-1 = tested on: IGROV-1
K562 = tested on: K562
MCF7 = tested on: MCF7
NCI-H460 = tested on: NCI-H460
NCI/ADR-RES = tested on: NCI/ADR-RES
OVCAR-3 = tested on: OVCAR-3
OVCAR-4 = tested on: OVCAR-4
OVCAR-8 = tested on: OVCAR-8
SF-295 = tested on: SF-295
SK-MEL-28 = tested on: SK-MEL-28
SNB-75 = tested on: SNB-75
SR = tested on: SR
SW-620 = tested on: SW-620
T47D = tested on: T47D
TK-10 = tested on: TK-10
HL-60 = tested on: HL-60
SK-MEL-5 = tested on: SK-MEL-5

SMILES	GI50 (HCT-116)	GI50 (HOP-62)	GI50 (IGROV-1)	GI50 (K562)	GI50 (MCF7)	GI50 (NCI-H460)	GI50 (NCI/ADR-RES)	GI50 (OVCAR-3)	GI50 (OVCAR-4)	GI50 (OVCAR-8)	GI50 (SF-295)	GI50 (SK-MEL-28)	GI50 (SNB-75)	GI50 (SR)	GI50 (SW-620)	GI50 (T47D)	GI50 (TK-10)	GI50 (HL-60)	GI50 (SK-MEL-5)
CC(=O)NC1C(OCc2ccccc2)OC(CO)C(O)C1OCC(=O)N1CCCC1C(=O)N[C@@H](CCC(=O)NCCCCNc1c2ccccc2nc2cccc([N+](=O)[O-])c12)C(N)=O (some centres undefined)	22.9 µM (inactive)	37.9 µM (inactive)	14.8 µM (inactive)	26.4 µM (inactive)	9.1 µM (inactive)	21 µM (inactive)	> 100 µM (inactive)	21.6 µM (inactive)	40.7 µM (inactive)	31 µM (inactive)	53.8 µM (inactive)	81.8 µM (inactive)	21.4 µM (inactive)	20.1 µM (inactive)	11.5 µM (inactive)	27.4 µM (inactive)	73.8 µM (inactive)	–	–
C[N+](C)(Cc1ccc(NC(=O)CCCC(=O)ON2C(=O)CCC2=O)cc1)c1ccccc1	< 0.01 µM (active)	< 0.01 µM (active)	< 0.01 µM (active)	< 0.01 µM (active)	–	> 1 µM (active)	–	< 0.01 µM (active)	< 0.01 µM (active)	< 0.01 µM (active)	< 0.01 µM (active)	< 0.01 µM (active)	< 0.01 µM (active)	< 0.01 µM (active)	< 0.01 µM (active)	–	< 0.01 µM (active)	< 0.01 µM (active)	< 0.01 µM (active)
COc1ccc(CN2C(=O)C(Cc3cc(OC)c(OC)c(C)c3OC)N(C(=O)OC(C)C)C(=O)/C2=C/c2cc(OC)c(OC)c(C)c2OC)cc1 (centres undefined)	66.2 µM (inactive)	> 100 µM (inactive)	> 100 µM (inactive)	41 µM (inactive)	–	18.4 µM (inactive)	–	16.1 µM (inactive)	> 100 µM (inactive)	> 100 µM (inactive)	> 100 µM (inactive)	> 100 µM (inactive)	83.8 µM (inactive)	15.2 µM (inactive)	> 100 µM (inactive)	–	> 100 µM (inactive)	7.96 µM (inactive)	46.8 µM (inactive)
O=C(NO)C(=O)Nc1cc(Cl)ccc1Cl	> 100 µM (inactive)	> 100 µM (inactive)	20.1 µM (inactive)	63.8 µM (inactive)	–	> 100 µM (inactive)	–	90.6 µM (inactive)	> 100 µM (inactive)	> 100 µM (inactive)	> 100 µM (inactive)	> 100 µM (inactive)	> 100 µM (inactive)	93.5 µM (inactive)	> 100 µM (inactive)	–	> 100 µM (inactive)	> 100 µM (inactive)	> 100 µM (inactive)
Cc1ccc(C2(C)NC(=S)N(NC(N)=S)C2=S)cc1 (centres undefined)	> 100 µM (inactive)	> 100 µM (inactive)	> 100 µM (inactive)	39.6 µM (inactive)	–	> 100 µM (inactive)	–	> 100 µM (inactive)	> 100 µM (inactive)	> 100 µM (inactive)	> 100 µM (inactive)	> 100 µM (inactive)	25.3 µM (inactive)	51.6 µM (inactive)	87.7 µM (inactive)	–	> 100 µM (inactive)	> 100 µM (inactive)	> 100 µM (inactive)
CC(=O)/C(=N\O)C(=O)NCCc1ccccc1	46 µM (inactive)	> 100 µM (inactive)	> 100 µM (inactive)	68.7 µM (inactive)	–	41.6 µM (inactive)	–	> 100 µM (inactive)	> 100 µM (inactive)	> 100 µM (inactive)	> 100 µM (inactive)	> 100 µM (inactive)	> 100 µM (inactive)	> 100 µM (inactive)	38.8 µM (inactive)	–	45.1 µM (inactive)	73.8 µM (inactive)	> 100 µM (inactive)
O=C(N/N=C/c1ccc(Cl)cc1)c1c(Cl)c(Cl)c(Cl)c(Cl)c1-c1nc2ccccc2[nH]1	40.3 µM (inactive)	0.0452 µM (active)	59.3 µM (inactive)	47.9 µM (inactive)	16.2 µM (inactive)	30 µM (inactive)	> 100 µM (inactive)	> 100 µM (inactive)	–	–	0.0405 µM (active)	> 100 µM (inactive)	> 100 µM (inactive)	59.2 µM (inactive)	> 100 µM (inactive)	4.47 µM (inactive)	–	> 100 µM (inactive)	49 µM (inactive)
CC(=O)OCC1OC(Sc2nc(-c3ccc(C)cc3)c(C#N)c(=O)n2C2OC(COC(C)=O)C(OC(C)=O)C(OC(C)=O)C2OC(C)=O)C(OC(C)=O)C(OC(C)=O)C1OC(C)=O (centres undefined)	> 100 µM (inactive)	> 100 µM (inactive)	> 100 µM (inactive)	–	> 100 µM (inactive)	> 100 µM (inactive)	> 100 µM (inactive)	> 100 µM (inactive)	–	> 100 µM (inactive)	> 100 µM (inactive)	> 100 µM (inactive)	> 100 µM (inactive)	> 100 µM (inactive)	> 100 µM (inactive)	> 100 µM (inactive)	> 100 µM (inactive)	–	> 100 µM (inactive)
